Measurements as given in patent EP4014973B1, “INHALED LIQUID FOR THE TREATMENT OF RESPIRATORY INFECTIONS IN HUMANS CAUSED BY PATHOGENS RESISTANT TO ANTIBIOTICS” (Conick Biotech LLC, priority 2020, dated 2022).
Read-outs that look alike come from different tables or passages of the source.

Tests used:
Micrococcus = test: In vitro comparative zone diameter test on Müller-Hinton-Agar; format: cell-based; conditions: amount used: novel compound 0.05 mL, Cephalosporin 0.1 mL, Ampicillin 0.2 mL
Histoplasma capsulatum = format: cell-based; conditions: Müller-Hinton-Agar, amount used: novel compound 0.05 mL, Cephalosporin 0.1 mL, Ampicillin 0.2 mL
Campylobacter = test: In vitro comparative zone diameter test on Müller-Hinton-Agar; format: cell-based; conditions: amount used: novel compound 0.05 mL, Cephalosporin 0.1 mL, Ampicillin 0.2 mL
Candida = test: as above; format: cell-based; conditions: amount used: novel compound 0.05 mL, Cephalosporin 0.1 mL, Ampicillin 0.2 mL
Pasteurella = test: as above; format: cell-based; conditions: amount used: novel compound 0.05 mL, Cephalosporin 0.1 mL, Ampicillin 0.2 mL
Microsporidia = test: as above; format: cell-based; conditions: amount used: novel compound 0.05 mL, Cephalosporin 0.1 mL, Ampicillin 0.2 mL
Cryptococcus = test: as above; format: cell-based; conditions: amount used: novel compound 0.05 mL, Cephalosporin 0.1 mL, Ampicillin 0.2 mL
rats [1] = conditions: p.o., 2,250 µL / kg
mice [2] = conditions: p.o., 2,000 µL / kg
rats [3] = system: rats
mice [4] = system: mice
humans = test: Clinical pilot study of side effects after inhalation; conditions: 80 humans
[5] = inhalatory application, 2,500 µL / kg
[6] = inhalatory application, after 14 days
[7] = inhalatory application, 2,250 µL / kg
[8] = inhalation, 10ml 2% / 30 kg every 8 hours for seven (7) days

## CC1(C)S[C@@H]2[C@H](NC(=O)[C@H](N)c3ccccc3)C(=O)N2[C@H]1C(=O)O [Ampicilin, Ampicillin]
Micrococcus
  R (evaluation of the results by zone diameter): R (0mm - 4mm: resistant: R)
  zone diameter: 0 mm
Histoplasma capsulatum
  R (evaluation of the results by zone diameter): R (0mm - 4mm: resistant: R)
  zone diameter: 2 mm
Campylobacter
  R (evaluation of the results by zone diameter): MS (5 - 9 mm: moderately sensitive: MS)
  zone diameter: 7 mm
Candida
  R (evaluation of the results by zone diameter): R (0mm - 4mm: resistant: R)
  zone diameter: 4 mm
Pasteurella
  R (evaluation of the results by zone diameter): MS (5 - 9 mm: moderately sensitive: MS)
  zone diameter: 5 mm
Microsporidia
  R (evaluation of the results by zone diameter): R (0mm - 4mm: resistant: R)
  zone diameter: 3 mm
Cryptococcus
  R (evaluation of the results by zone diameter): R (0mm - 4mm: resistant: R)
  zone diameter: 0 mm

## C=CCc1ccc(O)c(OC)c1.CCN(CC)CC(=O)Nc1c(C)cccc1C [Novel Compound, N-[N'-(carboxymethylenyl-2,6-dimethyl-aniline)-N,N-diethylammonium]-[2'-methoxy-4'-(2'-propenyl)]-phenolate.]
Rats [1]
  Breading and cardiac functions: regular
  time after which discomfort symptoms disappeared: 1 to 3 min
Rats [1]; out of hundred (100)
  rats that changed their behavior and demonstrated light discomfort (running, anxiety): 37
Mice [2]
  Breading and cardiac functions: regular
  time after which discomfort symptoms disappeared: 1 to 3 min
Mice [2]; out of hundred (100)
  mice that changed their behavior and demonstrated light discomfort (running, anxiety): 23
Micrococcus
  R (evaluation of the results by zone diameter): ES (21 mm and more: extremely sensitive: ES)
  zone diameter: 38 mm
Campylobacter
  R (evaluation of the results by zone diameter): ES (21 mm and more: extremely sensitive: ES)
  zone diameter: 32 mm
Rats [3]; [5]
  Breading and cardiac functions: regular
  time after which discomfort symptoms disappeared: 5 to 6 min
Rats [3]; inhalatory application, 2,500 µL / kg, out of hundred (100)
  rats that changed their behavior and demonstrated discomfort (running, anxiety): 29
Rats [3]; [6]
  reexamination of the animals: no new irregularities were found
Mice [4]; [7]
  Breading and cardiac functions: regular
  time after which discomfort symptoms disappeared: 3 to 5 min
Mice [4]; inhalatory application, 2,250 µL / kg, out of hundred (100)
  mice that changed their behavior and demonstrated discomfort (running, anxiety): 21
Mice [4]; [6]
  reexamination of the animals: no new irregularities were found
Candida
  R (evaluation of the results by zone diameter): ES (21 mm and more: extremely sensitive: ES)
  zone diameter: 33 mm
humans; blood samples before the test, on the 4th and 8th day
  C Reactive Protein (CRP) measurements: no inflammation was developed
humans; during the inhalation, 10ml 2% / 30 kg every 8 hours for seven (7) days
  pulse frequency and blood pressure: not significantly altered
humans; during the intake, 10ml 2% / 30 kg every 8 hours for seven (7) days
  Electrocardiography measurements: regular without any pathological and irregular oscillations
humans; in the very beginning of the test
  coughing: Sporadic coughing was recorded in some participants
humans; [8]
  bronchospasms: No bronchospasms were recorded
  dyspnea: No dyspnea was recorded
  respiratory function: not disturbed
Pasteurella
  R (evaluation of the results by zone diameter): ES (21 mm and more: extremely sensitive: ES)
  zone diameter: 36 mm
Microsporidia
  R (evaluation of the results by zone diameter): ES (21 mm and more: extremely sensitive: ES)
  zone diameter: 30 mm
Cryptococcus
  R (evaluation of the results by zone diameter): ES (21 mm and more: extremely sensitive: ES)
  zone diameter: 31 mm
